According to ChEMBL document CHEMBL5126646, “Synthesis and Biological Evaluation of Aurachin D Analogues as Inhibitors of Mycobacterium tuberculosis Cytochrome bd Oxidase” (ACS Med Chem Lett, 2022):
pIC50: −log10 of the molar value. Values after ≈ are worked out from the molar mass of the structure shown.

How the values were obtained:
[1] = (§1) Inhibition of Mycobacterium tuberculosis cytochrome bd oxidase over expressed in inverted membrane vesicles of Mycobacterium smegmatis mc2155 deltacydAB assessed as reduction in malate-induced increase in oxygen consumption rate measured at 120 secs in presence of cytochrome bcc-aa3 complex inhibitor TB47 by fluorespirometry; type: cell membranes, Membrane vesicle
[2] = tested on: Mycobacterium tuberculosis; assay: Antitubercular activity against Mycobacterium tuberculosis mc26230 incubated for 7 days; type: functional; settings: mc26230, 168 h, time 7 day
[3] = Growth inhibition of nonpathogenic Mycobacterium smegmatis mc2155 incubated for 48 hrs under shaking condition; settings: mycolicibacterium smegmatis
[4] = tested on: Mycolicibacterium smegmatis; assay: Growth inhibition of Mycobacterium smegmatis mc2155 harboring deltaqcr mutant incubated for 48 hrs under shaking condition; type: functional
[5] = as §1, with “smegmatis” for “smegmatis mc2155”, “after 60” for “at 120”; type: cell membranes, Membrane vesicle

Compound	pIC50 [1]	MIC [2] [µM]	MIC [3] [µM]	MIC [4] [µM]	pIC50 [5]
CC(C)=CCC/C(C)=C/CC/C(C)=C/Cc1c(C)[nH]c2ccccc2c1=O [AURACHIN D]	6.82	8 (≈ 2.91 µg/mL)	> 512	> 512	–
COc1cccc2[nH]c(C)c(C/C=C(\C)CC/C=C(\C)CCC=C(C)C)c(=O)c12	–	32 (≈ 12.6 µg/mL)	> 512	> 512	6.44
CC(C)=CCC/C(C)=C/CC/C(C)=C/Cc1c(C)[nH]c2ccc(N=[N+]=[N-])cc2c1=O	–	512 (≈ 207 µg/mL)	> 512	> 512	5.33
CC(C)=CCC/C(C)=C/CC/C(C)=C/Cc1c(C)[nH]c2ccc(N)cc2c1=O	–	> 512	> 512	> 512	5.30
CC(C)=CCC/C(C)=C/CC/C(C)=C/Cc1c(C)[nH]c2cc(C)ccc2c1=O	–	> 512	> 512	> 512	4.51
CC(C)=CCC/C(C)=C/CC/C(C)=C/Cc1c(C)[nH]c2cc(N)ccc2c1=O	–	> 512	> 512	> 512	5.74
COc1ccc2c(=O)c(C/C=C(\C)CC/C=C(\C)CCC=C(C)C)c(C)[nH]c2c1	–	> 512	> 512	> 512	6.89
CC(C)=CCC/C(C)=C/CC/C(C)=C/Cc1c(C)[nH]c2cc(F)ccc2c1=O	–	256 (≈ 97.7 µg/mL)	> 512	> 512	6.43
CC(C)=CCC/C(C)=C/CC/C(C)=C/Cc1c(C)[nH]c2ccc(O)cc2c1=O	–	256 (≈ 97.2 µg/mL)	> 512	> 512	6.23
CC(C)=CCC/C(C)=C/CC/C(C)=C/Cc1c(C)[nH]c2ccc(F)cc2c1=O	–	8 (≈ 3.05 µg/mL)	> 512	> 512	6.60
CC(C)=CCC/C(C)=C/CC/C(C)=C/Cc1c(C)[nH]c2cc(Cl)ccc2c1=O	–	> 512	> 512	> 512	< 3.00
Cc1[nH]c2ccccc2c(=O)c1Cc1ccccc1	–	32 (≈ 7.98 µg/mL)	> 512	> 512	5.32
CC(C)=CCC/C(C)=C/CC/C(C)=C/Cc1c(C)[nH]c2ccc(Cl)cc2c1=O	–	> 512	> 512	> 512	5.05
CC(C)=CCC/C(C)=C/CC/C(C)=C/Cc1c(C)[nH]c2cc(C(F)(F)F)ccc2c1=O	–	> 512	> 512	> 512	< 3.00
COc1cccc2c(=O)c(C/C=C(\C)CC/C=C(\C)CCC=C(C)C)c(C)[nH]c12	–	64 (≈ 25.2 µg/mL)	> 512	> 512	5.89
CC(C)=CCc1c(C)[nH]c2ccccc2c1=O	–	32 (≈ 7.27 µg/mL)	> 512	> 512	5.24
CC(C)=CCC/C(C)=C/CC/C(C)=C/Cc1c(C)[nH]c2cccc(O)c2c1=O	–	256 (≈ 97.2 µg/mL)	> 512	> 512	6.21
CC(C)=CCC/C(C)=C/CC/C(C)=C/Cc1c(C)[nH]c2ccc([N+](=O)[O-])cc2c1=O	–	> 512	> 512	> 512	5.74
CC(C)=CCC/C(C)=C/CC/C(C)=C/Cc1c(C)[nH]c2cccc(F)c2c1=O	–	256 (≈ 97.7 µg/mL)	> 512	> 512	5.12
CC(C)=CCC[C@@H](C)CCc1c(C)[nH]c2cc(N)ccc2c1=O	–	512 (≈ 160 µg/mL)	> 512	> 512	4.28
CC(C)=CCC/C(C)=C/Cc1c(C)[nH]c2ccc(N)cc2c1=O	–	> 512	> 512	> 512	4.48
COc1ccc2[nH]c(C)c(C/C=C(\C)CC/C=C(\C)CCC=C(C)C)c(=O)c2c1	–	256 (≈ 101 µg/mL)	> 512	> 512	6.17
CC(C)=CCC[C@@H](C)CCc1c(C)[nH]c2ccccc2c1=O	–	4 (≈ 1.19 µg/mL)	> 512	> 512	6.46
CC(C)=CCC/C(C)=C/CC/C(C)=C/Cc1c(C)[nH]c2cc(Cl)cc(Cl)c2c1=O	–	> 512	> 512	> 512	5.34
CC(C)=CCC/C(C)=C/Cc1c(C)[nH]c2ccccc2c1=O	–	> 512	> 512	> 512	5.96
